Experimental data from patent US5521193A, “Benzimidazole compounds” (G. D. Searle & Co., priority 1995, dated 1996).

Key:
5-HT3 = assay: Bezold-Jarisch Reflex (inhibition of 5-HT-induced bradycardia in anesthetized mice); type: in vivo; conditions: i.p., 30 min before 5-HT 0.25 mg/kg i.v.; >50 percent reduction in bradycardic response vs vehicle considered significant; pentobarbital anesthetized mice
Method: (§1) 5-HT4 agonist activity was determined in the in vitro rat tunice muscularis mucosae (TMM) assay. (Baxter et el., Naunyn Schmied Arch. Pharmacol, 1991, 343,439). The 5-HT4 agonist or antagonist activity and/or 5-HT3 antagonist activity of the compounds of the invention herein, can be determined by the assays as described herein, without undue experimention.
The compound to be evaluated was administered i.p. (mg/kg) to a group of 3 mice. […] A greater than 50 percent (>50) reduction in the bradycardic response relative to vehicle-treated control mice was considered significant.
This method has been described by Saxena, P. R. and Lawang, A., Arch. Int. Pharmacodyn., 277:235-252, 1985.
The assay results for the compounds of the present invention and their Minimum Effective Dose (MED) and the reference compounds and their MEDs are recorded in Table I.

5-HT3 receptor = target: T1, 5-HT3 receptor (Rattus norvegicus, UniProt P35563); assay: Serotonin (5-HT3) radioligand binding, [3H]-GR65630, rat brain cortex membranes; conditions: for Ki: [3H]-GR65630 0.2 nM, 60 min, 22° C.
T1 construct: Brain cortices were obtained from male rats and a membrane fraction prepared by standard techniques; from tissue; host or cells: rat brain cortex membranes
T1 sequence (P35563 24-483): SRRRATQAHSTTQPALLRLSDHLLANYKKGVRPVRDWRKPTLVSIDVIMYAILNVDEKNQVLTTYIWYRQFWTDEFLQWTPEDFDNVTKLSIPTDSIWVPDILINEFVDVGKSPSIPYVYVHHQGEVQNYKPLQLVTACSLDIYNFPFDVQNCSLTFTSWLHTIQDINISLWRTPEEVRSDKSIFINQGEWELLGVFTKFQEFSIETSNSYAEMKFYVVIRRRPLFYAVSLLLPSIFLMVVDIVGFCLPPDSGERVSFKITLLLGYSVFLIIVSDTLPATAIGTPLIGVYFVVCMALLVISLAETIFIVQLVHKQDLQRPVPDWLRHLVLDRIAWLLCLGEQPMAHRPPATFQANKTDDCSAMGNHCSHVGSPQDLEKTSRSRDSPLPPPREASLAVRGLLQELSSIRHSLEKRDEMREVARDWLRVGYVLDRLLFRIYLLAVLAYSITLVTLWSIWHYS
Method: GR65630 binds to the 5-HT3 receptor. Brain cortices were obtained from male rats and a membrane fraction prepared by standard techniques. 0.04 mg of membrane prep was incubated with 0.2 nM […] for 60 minutes at 22° C. […] Membranes were filtered and washed times and the filters were counted to determine [3H]-GR65630 specifically bound. Kilpatrick G. J., Jones B. J. and Tyers M. B. Identification and distribution of 5-HT3 receptors in rat brain using radioligand binding assay. Nature, 330 : 746-748, 1987.

5-HT4 receptor = target: T2, 5-HT4 receptor (Rattus norvegicus, UniProt Q62758); assay: biochemical; conditions: carbachol (3 μM)-contracted rat esophagus TMM; 37° C.; tissues from 5 rats; read-out: 5-HT4 Agonism (Rat TMM) In Vitro Assay: EC50 Values
T2 construct: One 2 cm segment of intrathoracic esophagus proximal to the diaphragm was removed from male rats; from tissue; host or cells: rat intrathoracic oesophagus, inner tunica muscularis mucosae
Method: as §1
Agonist activity was determined utilizing relaxation of carbachol-contracted rat tunica muscularis mucosae. One 2 cm segment of intrathoracic esophagus proximal to the diaphragm was removed from male rats, weighing approximately 300 gm, and the outer muscle layers removed. The inner tunica muscularis mucosa was mounted under 0.2-0.3 g of tension in a tissue bath containing oxygenated Tyrode's solution at 37° C. […] Following a 30 min equilibrium period, tissues were isometrically contracted with carbachol (3 μM) to obtain a tonic contraction. A stable plateau was obtained within 20 min when test compound was added cumulatively to relax the muscle strip. EC50 values were obtained for each agonist in tissues from 5 rats.

T2 sequence (Q62758 whole entry): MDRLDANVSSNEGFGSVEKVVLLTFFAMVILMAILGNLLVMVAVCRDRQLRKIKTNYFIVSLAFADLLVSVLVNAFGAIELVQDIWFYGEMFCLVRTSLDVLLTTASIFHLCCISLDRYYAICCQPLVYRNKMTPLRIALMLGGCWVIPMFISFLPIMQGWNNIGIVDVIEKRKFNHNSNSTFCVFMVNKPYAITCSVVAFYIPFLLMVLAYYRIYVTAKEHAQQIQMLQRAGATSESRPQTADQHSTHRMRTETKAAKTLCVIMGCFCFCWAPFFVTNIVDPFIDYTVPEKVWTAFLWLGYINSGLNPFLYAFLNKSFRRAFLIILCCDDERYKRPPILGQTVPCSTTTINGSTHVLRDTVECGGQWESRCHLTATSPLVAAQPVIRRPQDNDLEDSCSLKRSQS

Compound | Minimum Effective Dose (MED) (5-HT3) | Ki (5-HT3 receptor) | EC50 (5-HT4 receptor) | Bmax (5-HT3 receptor; [3H]-GR65630, rat brain cortex membranes)
CC(C)n1c(=O)n(C(=O)NC[C@H]2CCN3CCC[C@H]23)c2ccccc21 (relative stereo) [Example 23, cis-N-[(hexahydro-1H-pyrrolizin-1-yl)methyl]-2,3-dihydro-3-(1-methylethyl) 2-oxo-1H-benzimidazole-1-carboxamide] | 1 mg/kg |  |  | 
CC(C)n1c(=O)n(C(=O)N[C@@H]2[C@@H]3C[C@H]4CN(C3)C[C@H]42)c2ccccc21 (relative stereo) [Example 24, N-(hexahydro-1H-2,5β-methano-3aα,6aα-cyclopenta [c]pyrrol-4α-yl)-2,3-dihydro-3-(1-methylethyl)-2-oxo 1H-benzimidazole-1-carboxamide] |  | 0.002 µM | 1.51 µM | 
CN1C2CCCC1CC(NC(=O)c1nn(C)c3ccccc13)C2 (stereo not drawn) [BRL-43694] | 0.05 mg/kg |  |  | 
CC(C)n1c(=O)n(C(=O)NCCC23CCCN2CCC3)c2ccc(Cl)cc21 [Example 12, 5-chloro-N-[2-(hexahydro-7aH-pyrrolizin-7a-yl)ethyl]2,3-dihydro-3-(1-methylethyl)-2-oxo-1H-benzimidazole 1-carboxamide] |  | 2.8 µM | 9.47 µM | 
CC(C)n1c(=O)n(C(=O)NCCC23CCCN2CCC3)c2ccccc21 [Example 13, N-[2-(hexahydro-7aH-pyrrolizin-7a-yl)ethyl]-2,3-dihydro-3-(1-methylethyl) 2-oxo-1H-benzimidazole-1-carboxamide] | 10 mg/kg | 0.12 µM | 0.179 µM | 
CC(C)n1c(=O)n(C(=O)NCC23CCCN2CCC3)c2ccccc21 [Example 14, N-[(hexahydro-7aH-pyrrolizin-7a-yl)methyl]-2,3-dihydro-3-(1-methylethyl) 2-oxo-1H-benzimidazole-1-carboxamide] |  | 0.036 µM | 3.83 µM | 
CCn1c(=O)n(C(=O)NC2C3CC4CC2CN(C4)C3)c2ccccc21 (stereo not drawn) [Example 15, N-(1-azatricyclo[3.3.1.1^3,7]decan-4-yl)-3-ethyl-2,3-dihydro-2-oxo 1H-benzimidazole-1-carboxamide] |  | 0.092 µM | 4.58 µM | 
CC(C)n1c(=O)n(C(=O)NC2C3CC4CC2CN(C4)C3)c2cc(Cl)ccc21 (stereo not drawn) [Example 16, N-(1-azatricyclo[3.3.1.1^3,7]decan-4-yl)-6-chloro-2,3-dihydro-3-(1-methylethyl) 2-oxo-1H-benzimidazole-1-carboxamide] |  | 1.2 µM | 10 µM | 
CCn1c(=O)n(C(=O)NC2C3CC4CC2CN(C4)C3)c2cc(Cl)ccc21 (stereo not drawn) [Example 18, N-(1-azatricyclo[3.3.1.1^3,7]decan-4-yl)-6-chloro-3-ethyl-2,3-dihydro 2-oxo-1H-benzimidazole-1-carboxamide] |  | 1.2 µM |  | 
CCn1c(=O)n(C(=O)NC2C3CC4CC2CN(C4)C3)c2ccc(Cl)cc21 (stereo not drawn) [Example 19, N-(1-azatricyclo[3.3.1.1^3,7]decan-4-yl)-5-chloro-3-ethyl-2,3-dihydro 2-oxo-1H-benzimidazole-1-carboxamide] |  | 1.2 µM |  | 
CCn1c(=O)n(C(=O)NC2C3CC4CC2CN(C4)C3)c2ccccc21 (stereo not drawn) [Example 20, N-(1-azatricyclo[3.3.1.1^3,7]decan-4-yl)-3-ethyl-2,3-dihydro-2-oxo-1H-benzimidazole 1-carboxamide] |  | 0.019 µM | 10 µM | 
CCn1c(=O)n(C(=O)NC2C3CC4CC2CN(C4)C3)c2cc(Cl)ccc21 (stereo not drawn) [Example 21, N-(1-azatricyclo[3.3.1.1^3,7]decan-4-yl)-6-chloro-3-ethyl-2,3-dihydro 2-oxo-1H-benzimidazole-1-carboxamide] |  | 0.055 µM | 2.14 µM | 
CCn1c(=O)n(C(=O)NC2C3CC4CC2CN(C4)C3)c2ccc(Cl)cc21 (stereo not drawn) [Example 22, N-(1-azatricyclo[3.3.1.1^3,7]decan-4-yl)-5-chloro-3-ethyl-2,3-dihydro 2-oxo-1H-benzimidazole-1-carboxamide] |  | 0.36 µM |  | 
Cc1nc[nH]c1CCC(=O)c1cn(C)c2ccccc12 [GR65630, reference compound] |  |  |  | 154 fmol/mg protein
O=c1[nH]c2ccccc2n1CCCN1CCC(n2c(=O)[nH]c3cc(Cl)ccc32)CC1 [domperidone] | > 10 mg/kg |  |  | 
CC[C@@H](CO)NC(=O)[C@@H]1C=C2c3cccc4c3c(cn4C)C[C@H]2N(C)C1 [methylsergide] | > 10 mg/kg |  |  | 
CCN(CC)CCNC(=O)c1cc(Cl)c(N)cc1OC [metoclopramide] | 5 mg/kg |  |  | 
CN1[C@@H]2C[C@@H](OC(=O)[C@H](CO)c3ccccc3)C[C@H]1[C@@H]1O[C@@H]12 [scopolamine] | 2.5 mg/kg |  |  | 
